PubChem BioAssay AID226 (DTP/NCI, 2004)
Where “and” joins values, the source holds several entries; their conditions need not be identical. Equal values may be shown once. Inconclusive results and toxic doses are left out. How the source made its calls: active means survival T/C of 150% or more; inactive means T/C below 125% in these data.

System: B6C3F1 mice, intracerebral ependymoblastoma, median survival T/C
Experiment: NCI In Vivo Anticancer Drug Screen. Data for tumor model Ependymoblastoma (intracerebral) in B6C3F1 mice
Settings: endpoint: median survival time, higher = longer survival
Method: The antitumor activity of compounds was measured in mice bearing transplantable tumors. Survival or tumor size were measured and the results are expressed as the measurement made in the treated group (T) divided by the measurement made in the vehicle treated control group (C). The tumor model used in this assay is Ependymoblastoma (intracerebral) in B6C3F1 mice

[1] = dose: 1.0 mg/kg/injection, schedule: Q01DX005 (ip), vehicle: saline
[2] = dose: 2.0 mg/kg/injection, schedule: Q01DX005 (ip), vehicle: saline
[3] = dose: 4.0 mg/kg/injection, schedule: Q01DX005 (ip), vehicle: saline
[4] = dose: 8.0 mg/kg/injection, schedule: Q01DX005 (ip), vehicle: saline
[5] = dose: 16.0 mg/kg/injection, schedule: Q01DX005 (ip), vehicle: saline + alcohol

Measured: T/C

COC1OC(CO)C(O)C(NC(=O)N(C)N=O)C1O (stereo not drawn)
inactive: dose: 0.5 mg/kg/injection, schedule: Q01DX005 (ip), vehicle: saline 101 % of control | dose: 1.0 mg/kg/injection, schedule: Q01DX005 (ip), vehicle: saline + alcohol 100 % of control | [1] 103 % of control | dose: 1.0 mg/kg/injection, schedule: Q## X004 (ip), vehicle: saline + alcohol 113 % of control | dose: 1.0 mg/kg/injection, schedule: Q## X006 (ip), vehicle: saline + alcohol 116 % of control | dose: 2.0 mg/kg/injection, schedule: Q01DX005 (ip), vehicle: saline + alcohol 109 % of control | [2] 119 % of control | dose: 2.0 mg/kg/injection, schedule: Q## X004 (ip), vehicle: saline + alcohol 115 % of control | dose: 2.0 mg/kg/injection, schedule: Q#A X002 (ip), vehicle: saline + alcohol 107 % of control | dose: 4.0 mg/kg/injection, schedule: Q01DX001 (ip), vehicle: saline + alcohol 94 % of control and 100 % of control and 110 % of control | dose: 4.0 mg/kg/injection, schedule: Q01DX005 (ip), vehicle: saline + alcohol 107 % of control | [3] 108 % of control | dose: 4.0 mg/kg/injection, schedule: Q01DX005 (oral), vehicle: saline + alcohol 115 % of control | dose: 4.0 mg/kg/injection, schedule: Q## X004 (ip), vehicle: saline + alcohol 118 % of control | dose: 4.0 mg/kg/injection, schedule: Q## X006 (ip), vehicle: saline + alcohol 113 % of control | dose: 4.0 mg/kg/injection, schedule: Q#A X002 (ip), vehicle: saline + alcohol 97 % of control | dose: 8.0 mg/kg/injection, schedule: Q01DX001 (ip), vehicle: saline + alcohol 97 % of control and 106 % of control and 113 % of control | [4] 103 % of control | dose: 8.0 mg/kg/injection, schedule: Q01DX005 (oral), vehicle: saline + alcohol 113 % of control | dose: 8.0 mg/kg/injection, schedule: Q## X004 (ip), vehicle: saline + alcohol 119 % of control | dose: 8.0 mg/kg/injection, schedule: Q## X006 (ip), vehicle: saline + alcohol 118 % of control | dose: 8.0 mg/kg/injection, schedule: Q#A X002 (ip), vehicle: saline + alcohol 95 % of control | dose: 16.0 mg/kg/injection, schedule: Q01DX001 (ip), vehicle: saline + alcohol 91 % of control and 112 % of control and 117 % of control | dose: 16.0 mg/kg/injection, schedule: Q01DX001 (oral), vehicle: saline + alcohol 95 % of control and 108 % of control and 113 % of control | [5] 121 % of control | dose: 16.0 mg/kg/injection, schedule: Q01DX005 (oral), vehicle: saline + alcohol 101 % of control | dose: 16.0 mg/kg/injection, schedule: Q#A X002 (ip), vehicle: saline + alcohol 109 % of control | dose: 32.0 mg/kg/injection, schedule: Q01DX001 (ip), vehicle: saline + alcohol 100 % of control and 103 % of control and 108 % of control | dose: 32.0 mg/kg/injection, schedule: Q01DX001 (oral), vehicle: saline + alcohol 91 % of control and 95 % of control and 117 % of control | dose: 32.0 mg/kg/injection, schedule: Q01DX005 (oral), vehicle: saline + alcohol 101 % of control | dose: 32.0 mg/kg/injection, schedule: Q#A X002 (ip), vehicle: saline + alcohol 100 % of control | dose: 64.0 mg/kg/injection, schedule: Q01DX001 (ip), vehicle: saline + alcohol 103 % of control (2×) and 119 % of control | dose: 64.0 mg/kg/injection, schedule: Q01DX001 (oral), vehicle: saline + alcohol 106 % of control and 107 % of control and 109 % of control | dose: 128.0 mg/kg/injection, schedule: Q01DX001 (oral), vehicle: saline + alcohol 107 % of control and 112 % of control and 123 % of control | dose: 256.0 mg/kg/injection, schedule: Q01DX001 (oral), vehicle: saline + alcohol 107 % of control and 119 % of control

COc1cc(NS(C)(=O)=O)ccc1Nc1c2ccccc2nc2ccccc12
inactive: dose: 1.0 mg/kg/injection, schedule: Q01DX005 (ip), vehicle: Klucel (hydroxypropylcellulose) (HPC) 110 % of control | [1] 103 % of control and 104 % of control | dose: 1.0 mg/kg/injection, schedule: Q01DX005 (ip), vehicle: water 94 % of control and 96 % of control (2×) | dose: 2.0 mg/kg/injection, schedule: Q01DX005 (ip), vehicle: Klucel (hydroxypropylcellulose) (HPC) 99 % of control | [2] 107 % of control and 112 % of control | dose: 2.0 mg/kg/injection, schedule: Q01DX005 (ip), vehicle: water 94 % of control and 100 % of control and 101 % of control | dose: 4.0 mg/kg/injection, schedule: Q01DX005 (ip), vehicle: Klucel (hydroxypropylcellulose) (HPC) 103 % of control | [3] 103 % of control | dose: 4.0 mg/kg/injection, schedule: Q01DX005 (ip), vehicle: water 96 % of control and 100 % of control and 108 % of control | [4] 106 % of control and 112 % of control | dose: 8.0 mg/kg/injection, schedule: Q01DX005 (ip), vehicle: water 100 % of control and 107 % of control and 112 % of control

O=C(NC1=C(N2CC2)C(=O)C(NC(=O)OCCO)=C(N2CC2)C1=O)OCCO
inactive: dose: 0.18 mg/kg/injection, schedule: Q01DX005 (ip), vehicle: saline 106 % of control | dose: 0.39 mg/kg/injection, schedule: Q01DX005 (ip), vehicle: saline 98 % of control | dose: 0.75 mg/kg/injection, schedule: Q01DX005 (ip), vehicle: saline 102 % of control | dose: 1.5 mg/kg/injection, schedule: Q01DX005 (ip), vehicle: saline 103 % of control and 108 % of control | dose: 3.0 mg/kg/injection, schedule: Q01DX005 (ip), vehicle: saline 96 % of control and 115 % of control | dose: 6.0 mg/kg/injection, schedule: Q01DX005 (ip), vehicle: saline 110 % of control and 113 % of control

CCCCC(=O)OCC1OC(n2cnc3c(=S)nc[nH]c32)C(OC(=O)CCCC)C1OC(=O)CCCC (stereo not drawn)
inactive: dose: 25.0 mg/kg/injection, schedule: Q01DX005 (ip), vehicle: saline with Tween-80 116 % of control | dose: 50.0 mg/kg/injection, schedule: Q01DX005 (ip), vehicle: saline with Tween-80 99 % of control | dose: 100.0 mg/kg/injection, schedule: Q01DX005 (ip), vehicle: saline with Tween-80 103 % of control

F
inactive: dose: 16.0 mg/kg/injection, schedule: Q01DX005 (ip), vehicle: saline 112 % of control | dose: 32.0 mg/kg/injection, schedule: Q01DX005 (ip), vehicle: saline 107 % of control | dose: 64.0 mg/kg/injection, schedule: Q01DX005 (ip), vehicle: saline 105 % of control

COC1OC(CNC(=O)N(CCCl)N=O)C(O)C(O)C1O (stereo not drawn)
inactive: dose: 0.5 mg/kg/injection, schedule: Q01DX001 (ip), vehicle: saline 103 % of control and 119 % of control | dose: 1.0 mg/kg/injection, schedule: Q01DX001 (ip), vehicle: saline 109 % of control and 86 % of control | dose: 2.0 mg/kg/injection, schedule: Q01DX001 (ip), vehicle: saline 99 % of control and 103 % of control | dose: 4.0 mg/kg/injection, schedule: Q01DX001 (ip), vehicle: saline 105 % of control and 109 % of control | dose: 8.0 mg/kg/injection, schedule: Q01DX001 (ip), vehicle: saline 103 % of control and 111 % of control | dose: 16.0 mg/kg/injection, schedule: Q01DX001 (ip), vehicle: saline 119 % of control

COC(=O)c1ccc(N=NN(C)C)cc1
active: dose: 128.0 mg/kg/injection, schedule: Q01DX005 (ip), vehicle: saline + alcohol 160 % of control and 164 % of control
inactive: dose: 8.0 mg/kg/injection, schedule: Q01DX005 (ip), vehicle: saline + alcohol 114 % of control | [5] 114 % of control | dose: 256.0 mg/kg/injection, schedule: Q01DX005 (ip), vehicle: saline + alcohol 100 % of control
